Reference: a compilation of properties of binary mixtures (doi:10.1021/je400097b)

Assay: xn = mol fraction of the nth substance listed
Conditions: 101 kPa

O + CC[NH+](C)CC.O=S(=O)([O-])C(F)(F)F
Conditions	viscosity [mPa·s]
293.15 K, x1 = 1	1.2

CC[NH+](C)CC.O=S(=O)([O-])C(F)(F)F + O
viscosity [mPa·s]
Conditions	x2 = 0.037	x2 = 0.434	x2 = 0.586	x2 = 0.759	x2 = 0.844	x2 = 0.925	x2 = 0.972
293.15 K	53.3	22.3	14.5	–	4.99	2.86	1.69
313.15 K	–	12.1	7.98	4.38	2.89	1.75	1.2
333.15 K	14.6	–	4.97	–	–	1.28	1.01
353.15 K	9.18	–	3.38	–	1.45	1.08	0.91
